This is an account of results in patent publication US20040091937A1, “Use of fluorine NMR for high throughput screening” (priority 2002, published 2004).

Several values for one entry are separate records, joined by “and”; a condition that tells them apart may be missing. Equal values may be shown once. Where a name gives a salt, the structure may show the parent alone.

The target in assay [1] is T1, human serum albumin (Homo sapiens, UniProt P02768). Kind of assay: Isothermal titration calorimetry with HSA. The class given is binding. Also on record: purchased Sigma A-3782. As to the method: Isothermal titration calorimetry experiments were performed using an OMEGA titrating microcalorimeter from Microcal, Inc. (Northampton, Mass.). The titrating microcalorimeter consisted of a sample and reference cell held in an adiabatic enclosure. The reference cell was filled with PBS. […] Analyte at 0.8 mM in the same buffer was held in a 250 μL syringe. Thirty injections (8 μL each and 12 seconds/injection) of analyte were made by a computer controlled stepper motor into the sample cell held at 25° C. The syringe stir rate was 400 rpm. Heat adsorbed or released with each injection was measured by a thermoelectric device connected to a Microcal nanovolt preamplifier. Titration isotherms for the binding interactions were comprised of the differential heat flow for each injection. Heat of dilution obtained by injecting analyte into PBS was negligible. Binding isotherms were fit to a single binding site model (T. Wiseman et al., Anal. Biochem., 179, 131-137 (1989)) using an iterative nonlinear least-squares algorithm included with the instrument.
T1 sequence (P02768 25-609): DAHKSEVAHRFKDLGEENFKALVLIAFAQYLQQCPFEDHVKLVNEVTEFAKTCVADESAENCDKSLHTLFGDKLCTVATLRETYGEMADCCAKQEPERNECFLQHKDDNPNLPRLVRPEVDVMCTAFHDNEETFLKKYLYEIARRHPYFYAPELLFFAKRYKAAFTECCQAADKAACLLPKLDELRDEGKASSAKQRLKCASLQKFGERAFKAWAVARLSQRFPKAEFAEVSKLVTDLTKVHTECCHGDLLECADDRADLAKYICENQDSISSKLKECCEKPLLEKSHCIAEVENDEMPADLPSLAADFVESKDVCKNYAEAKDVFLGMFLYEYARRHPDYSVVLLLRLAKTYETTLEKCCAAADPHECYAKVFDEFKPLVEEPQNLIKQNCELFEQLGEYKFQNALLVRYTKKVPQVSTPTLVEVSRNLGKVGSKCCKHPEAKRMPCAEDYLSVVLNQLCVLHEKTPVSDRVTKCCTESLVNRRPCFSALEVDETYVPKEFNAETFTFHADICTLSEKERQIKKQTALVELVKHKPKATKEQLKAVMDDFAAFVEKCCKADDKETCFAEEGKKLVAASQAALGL
(In general: Isothermal titration calorimetry measures the heat released or taken up as one component is titrated into another.)

Assay [2] concerns the target T1, human serum albumin. Kind of assay: 19F NMR spin-echo competition binding screening against HSA with spy molecule (3) and control molecule (2).
Protocol: (§1) D2O was added to the solution (8% final concentration) for the lock signal.
A dual coil {^19F}-{^1H} probe was used with the inner coil tuned to ^19F and the outer coil tuned to ^1H frequency. […] These signals are broad and therefore are not visible in the spectra of the reference and control molecule recorded with a spin-echo scheme. All the spectra were recorded with a weak Waltz-16 proton decoupling applied during the acquisition period. Typically 4-8 dummy scans were recorded for temperature equilibration. Carr-Purcell-Meibom-Gill schemes of different length and long 2τ interval were used before the acquisition period. Chemical shifts were referenced to trifluoroacetic acid.
These techniques also provide the number of binding sites (n) for the reference molecule a parameter that is very important for the competition binding experiments.
For screening, a total spin-echo period (2nτ) was selected for which the signal of the reference molecule is approaching zero.
In assay [3] the target is T2, PAK4 (Homo sapiens, UniProt O96013).
T2 construct: GST (cleaved yes); made in house; host or cells: E. coli
T2 sequence (O96013 321-572 limits assumed, species assumed): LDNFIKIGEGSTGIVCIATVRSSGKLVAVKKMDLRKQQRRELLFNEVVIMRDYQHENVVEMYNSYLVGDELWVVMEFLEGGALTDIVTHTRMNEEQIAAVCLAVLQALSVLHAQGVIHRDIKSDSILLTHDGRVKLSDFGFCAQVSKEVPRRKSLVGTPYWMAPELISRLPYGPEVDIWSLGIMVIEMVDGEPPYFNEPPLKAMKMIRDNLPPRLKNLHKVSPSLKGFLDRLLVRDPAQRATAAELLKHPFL
Kind of assay: 19F NMR binding and competition binding screening and deconvolution against p21-activated kinase. The note with it: 15 μM TFA, 1.5 μM protein.
Protocol: as §1
The signal of the non-interacting molecule represents an internal reference that can be used for calibrating with a single experiment the changes in the signal of the spy molecule. […] It should be noted that some compounds in the screening may contain traces of TFA.

As to `O=C(O)c1cccc(F)c1O` [(3), 2-hydroxy 3-fluorobenzoic acid], the Kd was 41 ± 3.3 µM in assay [1] (HSA in PBS + 2% DMSO, 25° C., single binding site model, read-out: ITC derived KD); 327 µM and 300 µM in assay [2] (KD^app, apparent KD of (3), 50 μM, with 25 μM (4) and 0.6 μM HSA).

In the case of `FC(F)(F)c1nnc(N2CCNCC2)s1` [(2), 1-[5-(trifluoromethyl)1,3,4-thiadiazol-2-yl]piperazine], in assay [1] (8 μL injections of 800 μM into 30 μM HSA), the “evidence of binding to HSA by ITC” value is “did not find any evidence of binding to HSA”.

As to `O=C(O)C(F)(F)F` [trifluoroacetic acid (TFA), trifluoroacetic acid], in assay [3], the “interaction with the protein (19F spectra in absence and presence of protein)” value is listed as “non-interacting”.

`Cc1ccc2[nH]cc(CC(N)C(=O)O)c2c1` (centres unmarked) [5-CH3 D,L Trp]: the “effect on the 19F signal of the spy molecule (3) (displacement from HSA)” value in assay [2] (600 nM HSA, 50 μM (3), 25 μM (2), 50 μM 5-CH3 D,L Trp and sucrose, 25 μM (4)) is “do not alter the spectrum of the spy molecule”.
